Each block holds one compound with its values, some of them ahead of it. Activity calls are given as the source filed them.
Assays:
HEK293 = assay: inhibitors of LMP1-driven NF-kB reporter, dose response, cell-based, HEK293, luciferase, cherry-pick (AID 588343); format: functional; details: Homo sapiens
Cytochrome P450 3A4 = Cytochrome P450 3A4 (Homo sapiens, UniProt P08684);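 also: CYP3A4 tested as one member of a cytochrome P450 panel screen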
Cytochrome P450 2C9 = Cytochrome P450 2C9 (Homo sapiens, UniProt P11712)
[1] = target: Dual specificity tyrosine-phosphorylation-regulated kinase 1A (Rattus norvegicus, UniProt Q63470); format: biochemical, Homo sapiens
[2] = growth suppression of PTEN-null colon cells, dose response, cell-based, HCT116 PTEN knockout (AID 1047); format: functional;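 also: HCT116 colon tumor cells with PTEN knocked out; cells exposed to compound for 60 hours before readout; potency for loss of cell viability measured by luminescence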
[3] = target: T1, Microphthalmia-associated transcription factor (Homo sapiens, UniProt O75030); assay: TRPM1 promoter luciferase signal decrease, dose response, MITF inhibitor project, cell-based, SK-MEL-5, cherry-picked, set 3 (AID 493073); format: functional
T1 sequence (O75030 whole entry): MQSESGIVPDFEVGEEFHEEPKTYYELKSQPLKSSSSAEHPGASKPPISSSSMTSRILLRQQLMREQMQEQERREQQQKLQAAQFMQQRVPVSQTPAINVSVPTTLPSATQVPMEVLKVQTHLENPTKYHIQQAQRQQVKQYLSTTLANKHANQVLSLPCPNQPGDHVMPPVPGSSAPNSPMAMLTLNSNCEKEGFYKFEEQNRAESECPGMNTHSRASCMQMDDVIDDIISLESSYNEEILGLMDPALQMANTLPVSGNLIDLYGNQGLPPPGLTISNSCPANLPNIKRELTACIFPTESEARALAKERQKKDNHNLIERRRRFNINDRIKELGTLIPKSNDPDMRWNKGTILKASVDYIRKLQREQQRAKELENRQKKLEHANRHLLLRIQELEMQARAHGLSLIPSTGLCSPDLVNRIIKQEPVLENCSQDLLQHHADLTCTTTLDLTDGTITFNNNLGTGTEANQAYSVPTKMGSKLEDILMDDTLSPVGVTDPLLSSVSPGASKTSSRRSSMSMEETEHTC

INS1 = assay: beta cell apoptosis inhibitors, cytokine rescue, dose response, luminescence, retest (AID 449756); format: functional, cell-based; details: Rattus norvegicus;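 also: cell death triggered by IL-1 beta plus TNF-alpha plus IFN-gamma mixture; protective hits raise ATP signal compared with cytokine alone wells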
A-375 = assay: A375 melanoma cell viability reduction, dose response, counter-screen for MITF modulator project, cherry-pick samples, set 2 (AID 540335); format: functional, cell-based; details: Homo sapiens
[4] = Luminescence Cell-Based Dose Retest to Confirm Inhibitors of Cancer Stem Cells. [Related pubchem assays (depositor defined):AID2717, AID2721]; format: functional; details: Homo sapiens
[5] = growth suppression of beta-catenin-knockout colon cells, dose response, cell-based, HCT116, human colon tumor (AID 1045); format: functional;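 also: HCT116 colon tumor cells with beta catenin knocked out; cells exposed to compound for 60 hours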
Vero = Vero cell cytotoxicity, cytotoxicity control for flavivirus capping enzyme inhibitors (AID 588742); format: functional; details: Chlorocebus sabaeus
Escherichia coli = assay: microbe, parasite or virus in culture
[6] = NIH-3T3 fibroblast cytotoxicity, dose response, cytotoxicity control, cell-based, fluorescence, Alamar Blue, secondary assay (AID 2327); format: functional;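 also: NIH-3T3 mouse fibroblasts cultured with fluconazole at 8 µg/mL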
Caspase-3 = target: T2, Caspase-3 (Homo sapiens, UniProt P42574); format: functional;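 also: Dose-response selectivity test against caspase-3 for candidate inhibitors of sentrin-specific proteases (SENPs)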
T2 sequence (P42574 whole entry): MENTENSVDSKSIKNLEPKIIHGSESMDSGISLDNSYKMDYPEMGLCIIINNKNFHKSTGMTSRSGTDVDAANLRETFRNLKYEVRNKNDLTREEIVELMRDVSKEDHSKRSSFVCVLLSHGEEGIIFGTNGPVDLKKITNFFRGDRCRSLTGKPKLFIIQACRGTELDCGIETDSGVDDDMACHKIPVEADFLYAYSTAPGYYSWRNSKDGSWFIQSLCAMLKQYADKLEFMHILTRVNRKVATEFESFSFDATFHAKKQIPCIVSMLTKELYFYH

[7] = C. albicans growth with fluconazole, confirmation, fluorescence, retest (AID 2467); format: functional, cell-based
[8] = target: T3, Sentrin-specific protease 6 (Homo sapiens, UniProt Q9GZR1); format: functional;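 also: Luminescence-based dose-response confirmatory assay of SENP6 inhibition, following up an ultra-high-throughput screen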
T3 sequence (Q9GZR1 whole entry): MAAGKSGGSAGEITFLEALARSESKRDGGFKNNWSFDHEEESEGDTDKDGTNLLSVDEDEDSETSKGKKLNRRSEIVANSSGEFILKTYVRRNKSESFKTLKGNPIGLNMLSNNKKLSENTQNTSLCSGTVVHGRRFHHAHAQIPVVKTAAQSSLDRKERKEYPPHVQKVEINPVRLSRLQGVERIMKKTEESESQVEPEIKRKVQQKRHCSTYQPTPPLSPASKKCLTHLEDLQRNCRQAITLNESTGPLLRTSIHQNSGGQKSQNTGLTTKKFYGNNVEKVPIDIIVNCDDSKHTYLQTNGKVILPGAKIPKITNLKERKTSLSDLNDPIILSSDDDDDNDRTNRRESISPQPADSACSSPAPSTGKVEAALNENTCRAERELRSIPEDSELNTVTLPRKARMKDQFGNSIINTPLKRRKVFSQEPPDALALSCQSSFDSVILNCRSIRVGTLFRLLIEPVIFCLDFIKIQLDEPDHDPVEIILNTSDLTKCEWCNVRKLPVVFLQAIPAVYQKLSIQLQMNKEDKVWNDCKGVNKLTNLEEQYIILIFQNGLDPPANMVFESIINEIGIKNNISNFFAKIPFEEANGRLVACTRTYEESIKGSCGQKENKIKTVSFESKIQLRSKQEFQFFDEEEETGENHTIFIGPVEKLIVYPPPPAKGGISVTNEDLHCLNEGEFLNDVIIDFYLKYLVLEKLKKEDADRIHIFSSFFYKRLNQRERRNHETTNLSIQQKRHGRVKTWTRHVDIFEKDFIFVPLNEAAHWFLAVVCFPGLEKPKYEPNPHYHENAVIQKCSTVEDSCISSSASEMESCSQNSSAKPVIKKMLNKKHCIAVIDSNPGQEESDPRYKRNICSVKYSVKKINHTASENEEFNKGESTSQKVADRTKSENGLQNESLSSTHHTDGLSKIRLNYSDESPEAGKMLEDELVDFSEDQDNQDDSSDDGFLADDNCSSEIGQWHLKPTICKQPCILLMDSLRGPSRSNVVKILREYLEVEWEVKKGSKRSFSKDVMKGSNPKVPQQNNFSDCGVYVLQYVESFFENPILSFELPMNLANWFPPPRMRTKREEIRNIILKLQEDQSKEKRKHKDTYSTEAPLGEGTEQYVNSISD

[9] = target: T4, Sentrin-specific protease 8 (Homo sapiens, UniProt Q96LD8); format: functional;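 also: luminescence read-out of SENP8 inhibition, dose-response confirmation following an ultra-high-throughput screen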
T4 sequence (Q96LD8 whole entry): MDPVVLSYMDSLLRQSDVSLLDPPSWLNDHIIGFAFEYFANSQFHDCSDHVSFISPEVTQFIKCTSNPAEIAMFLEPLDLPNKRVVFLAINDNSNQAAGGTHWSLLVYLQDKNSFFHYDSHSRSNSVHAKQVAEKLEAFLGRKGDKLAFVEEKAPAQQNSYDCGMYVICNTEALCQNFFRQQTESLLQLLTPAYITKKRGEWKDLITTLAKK

[10] = target: T5, Sentrin-specific protease 7 (Homo sapiens, UniProt Q9BQF6); format: functional;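 also: Luminescence-based dose-response confirmation of ultra-high-throughput screening hits, measuring inhibition of SENP7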
T5 sequence (Q9BQF6 whole entry): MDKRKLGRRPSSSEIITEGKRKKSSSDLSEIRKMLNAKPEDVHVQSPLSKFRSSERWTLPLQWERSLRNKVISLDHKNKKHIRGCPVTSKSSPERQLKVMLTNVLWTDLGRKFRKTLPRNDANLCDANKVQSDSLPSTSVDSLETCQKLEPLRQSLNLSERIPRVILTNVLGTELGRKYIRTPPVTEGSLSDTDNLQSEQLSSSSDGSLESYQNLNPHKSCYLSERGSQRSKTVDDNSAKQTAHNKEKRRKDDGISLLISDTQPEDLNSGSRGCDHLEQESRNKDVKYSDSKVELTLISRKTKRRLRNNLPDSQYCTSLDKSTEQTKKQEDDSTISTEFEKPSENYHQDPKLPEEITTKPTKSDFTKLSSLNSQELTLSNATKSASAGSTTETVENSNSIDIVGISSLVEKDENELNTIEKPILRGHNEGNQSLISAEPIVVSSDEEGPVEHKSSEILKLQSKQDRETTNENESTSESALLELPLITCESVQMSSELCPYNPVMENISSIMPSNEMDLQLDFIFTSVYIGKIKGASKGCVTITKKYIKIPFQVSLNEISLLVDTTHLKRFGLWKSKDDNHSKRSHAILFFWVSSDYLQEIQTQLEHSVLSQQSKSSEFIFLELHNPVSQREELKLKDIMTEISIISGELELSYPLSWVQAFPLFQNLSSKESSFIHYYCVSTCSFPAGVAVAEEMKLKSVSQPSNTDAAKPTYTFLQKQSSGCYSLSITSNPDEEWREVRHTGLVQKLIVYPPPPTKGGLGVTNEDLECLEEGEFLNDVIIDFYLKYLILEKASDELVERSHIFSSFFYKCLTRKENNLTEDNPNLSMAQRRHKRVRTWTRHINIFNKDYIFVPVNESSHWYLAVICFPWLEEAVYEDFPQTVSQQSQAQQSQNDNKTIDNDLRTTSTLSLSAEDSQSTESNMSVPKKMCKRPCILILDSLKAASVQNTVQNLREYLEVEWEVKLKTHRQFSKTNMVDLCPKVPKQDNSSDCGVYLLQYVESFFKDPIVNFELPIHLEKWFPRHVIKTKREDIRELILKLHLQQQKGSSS

[11] = target: T6, RNA-binding protein pos-1 (Caenorhabditis elegans, UniProt G5EF15); assay: inhibitors of POS-1/mex-3 RNA binding, dose response, biochemical, fluorescence polarization (AID 1964);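 also: purified POS-1 fused to maltose binding protein made in E. coli; potency of compounds blocking POS-1 binding to fluorescent RNA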
T6 sequence (G5EF15 whole entry): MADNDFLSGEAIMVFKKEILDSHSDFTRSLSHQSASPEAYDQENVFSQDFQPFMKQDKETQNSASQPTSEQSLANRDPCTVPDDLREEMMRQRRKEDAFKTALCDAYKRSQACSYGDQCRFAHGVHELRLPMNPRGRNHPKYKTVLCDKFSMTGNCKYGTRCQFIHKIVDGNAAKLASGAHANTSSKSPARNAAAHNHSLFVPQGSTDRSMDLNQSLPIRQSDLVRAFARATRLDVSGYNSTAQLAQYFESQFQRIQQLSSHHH

[12] = target: T7, Zinc finger protein mex-5 (Caenorhabditis elegans, UniProt Q9XUB2); assay: MEX-5/TCR-2 RNA interaction inhibitors, dose response, biochemical, C. elegans, fluorescence polarization (AID 1960)
T7 sequence (Q9XUB2 whole entry): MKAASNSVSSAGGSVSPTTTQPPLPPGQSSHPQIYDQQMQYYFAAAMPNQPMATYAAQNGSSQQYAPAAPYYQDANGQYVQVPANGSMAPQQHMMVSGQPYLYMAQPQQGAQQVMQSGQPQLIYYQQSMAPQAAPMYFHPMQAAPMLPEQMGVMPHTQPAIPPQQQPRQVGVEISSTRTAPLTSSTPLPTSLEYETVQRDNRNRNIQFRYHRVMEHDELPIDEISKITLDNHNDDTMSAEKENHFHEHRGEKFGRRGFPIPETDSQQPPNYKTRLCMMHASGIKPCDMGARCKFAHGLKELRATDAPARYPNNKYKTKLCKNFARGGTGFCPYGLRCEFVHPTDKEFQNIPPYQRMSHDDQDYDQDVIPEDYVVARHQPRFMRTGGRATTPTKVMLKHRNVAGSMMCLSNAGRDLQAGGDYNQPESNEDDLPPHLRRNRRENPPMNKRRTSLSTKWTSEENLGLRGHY

Leucine aminopeptidase = target: T8, Leucine aminopeptidase (Plasmodium falciparum 3D7, UniProt Q8IL11); assay: P. falciparum M17LAP inhibitors, primary screen, biochemical, fluorogenic H-Leu-NHMec substrate, 1536-well (AID 1619); format: functional
T8 sequence (Q8IL11 whole entry): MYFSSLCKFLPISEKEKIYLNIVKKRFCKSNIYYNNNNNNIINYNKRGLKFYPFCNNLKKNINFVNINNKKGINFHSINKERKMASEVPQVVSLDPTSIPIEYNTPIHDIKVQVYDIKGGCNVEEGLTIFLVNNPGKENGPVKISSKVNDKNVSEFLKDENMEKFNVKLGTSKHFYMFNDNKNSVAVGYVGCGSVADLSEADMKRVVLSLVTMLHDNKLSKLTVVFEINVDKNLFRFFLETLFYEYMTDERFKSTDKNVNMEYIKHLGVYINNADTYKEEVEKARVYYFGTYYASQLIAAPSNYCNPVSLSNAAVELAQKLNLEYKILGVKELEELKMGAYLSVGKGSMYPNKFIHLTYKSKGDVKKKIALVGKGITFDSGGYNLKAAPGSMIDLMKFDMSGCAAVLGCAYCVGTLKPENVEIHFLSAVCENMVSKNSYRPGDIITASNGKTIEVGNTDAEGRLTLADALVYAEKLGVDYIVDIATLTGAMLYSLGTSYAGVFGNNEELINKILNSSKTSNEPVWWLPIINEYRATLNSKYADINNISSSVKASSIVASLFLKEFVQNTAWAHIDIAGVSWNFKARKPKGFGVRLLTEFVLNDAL

Cytochrome P450 2C9, sequence (P11712 whole entry): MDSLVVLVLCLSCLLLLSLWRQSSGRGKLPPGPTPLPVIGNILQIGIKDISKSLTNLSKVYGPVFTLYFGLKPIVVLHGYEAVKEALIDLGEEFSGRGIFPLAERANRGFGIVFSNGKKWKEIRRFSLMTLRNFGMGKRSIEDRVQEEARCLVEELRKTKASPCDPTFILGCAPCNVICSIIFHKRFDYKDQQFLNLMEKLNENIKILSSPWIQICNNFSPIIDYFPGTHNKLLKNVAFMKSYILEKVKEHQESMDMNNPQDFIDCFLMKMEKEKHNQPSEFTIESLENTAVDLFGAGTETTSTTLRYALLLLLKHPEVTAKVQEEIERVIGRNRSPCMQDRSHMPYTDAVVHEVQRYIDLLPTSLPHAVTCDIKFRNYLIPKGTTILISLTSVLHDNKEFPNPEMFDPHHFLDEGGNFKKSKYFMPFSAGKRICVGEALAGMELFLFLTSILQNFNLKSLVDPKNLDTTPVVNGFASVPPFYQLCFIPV
Cytochrome P450 3A4, sequence (P08684 whole entry): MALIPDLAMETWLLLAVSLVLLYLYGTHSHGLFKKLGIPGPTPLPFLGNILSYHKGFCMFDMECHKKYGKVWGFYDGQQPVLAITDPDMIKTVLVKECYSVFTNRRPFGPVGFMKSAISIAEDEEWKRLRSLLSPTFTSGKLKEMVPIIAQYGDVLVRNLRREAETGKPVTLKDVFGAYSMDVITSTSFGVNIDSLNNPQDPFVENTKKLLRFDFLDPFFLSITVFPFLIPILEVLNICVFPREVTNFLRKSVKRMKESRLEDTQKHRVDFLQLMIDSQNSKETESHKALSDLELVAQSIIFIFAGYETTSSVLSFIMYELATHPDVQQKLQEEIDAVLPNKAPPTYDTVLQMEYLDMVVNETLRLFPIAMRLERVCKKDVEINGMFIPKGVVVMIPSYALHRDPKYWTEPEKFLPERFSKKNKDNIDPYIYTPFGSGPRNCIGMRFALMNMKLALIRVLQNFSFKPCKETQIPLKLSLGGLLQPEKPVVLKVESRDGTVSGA

SMILES: O=C(O)/C=C/c1ccc2ccccc2n1
AC50 (HEK293): 47.7 µM (active)

AC50 (Cytochrome P450 3A4): inconclusive
AC50 (Cytochrome P450 2C9): inconclusive
SMILES: C=CCNc1sc(C(=O)c2ccccc2)c(N)c1C#N

AC50 [1]: 0.235 µM (active)
SMILES: Cc1nc(COc2ccccc2Cl)sc1-c1ccnc(N)n1

SMILES: CN(C)CCNC(=O)/C(=C/c1ccc(-c2ccc(Cl)cc2Cl)o1)NC(=O)c1ccccc1
EC50 [2]: 5.71 µM (active)
AC50 [3]: 4.97 µM (active)
AC50 (INS1): 7.89 µM (active)
AC50 (A-375): 18.9 µM (active)
AC50 [4]: 6.63 µM (active)
EC50 [5]: 4.99 µM (active)

AC50 [1]: 7.72 µM (active)
SMILES: COc1cc(/C=C2\SC(=O)NC2=O)ccc1Oc1ccc([N+](=O)[O-])cc1[N+](=O)[O-]
CC50 (Vero): > 40 µM (active)

SMILES: CCC(CC)C(=O)Nc1nnc(S(=O)(=O)N2CCCCCC2)s1
AC50 (Escherichia coli): 29.7 µM (active)

SMILES: CCCCCc1ccc(-c2ccc(/C=C/C(=O)O)cc2)nc1
EC50 [6]: > 160 µM (inconclusive)
IC50 (Caspase-3): 35.4 µM (active)
EC50 [7]: 2.03 µM (active)
IC50 [8]: 11.2 µM (active)
AC50 (HEK293): 20.8 µM (active)
IC50 [9]: 8.8 µM (active)
IC50 [10]: 6.37 µM (active)

SMILES: COC(=O)C1=C(C)N(Cc2ccccc2)C(NCc2ccccc2)=N[C@H]1c1ccccc1
AC50 [3]: 18 µM (active)
AC50 (A-375): 23.7 µM (active)

SMILES: CCn1c2ccccc2c2cc(/C=N/n3c(C)nnc3C)ccc21
AC50 (HEK293): 34.2 µM (active)

EC50 [11]: > 300 µM (not active)
EC50 [12]: 23.9 µM (active)
AC50 [1]: 12 µM (active)
IC50 (Leucine aminopeptidase): 48.5 µM (active)
SMILES: COc1ccc(Nc2ncnc3nc[nH]c23)cc1OC

Reference: ChEMBL document CHEMBL1201862, “PubChem BioAssay data set” (2004)
